For four compounds, IC50 results are on record in BindingDB's records for doi:10.1016/s0960-894x(98)00583-6 (Novartis Horsham Research Center, 1999).

In the assay the target is cGMP-inhibited 3',5'-cyclic phosphodiesterase 3A/3B (Homo sapiens, UniProt Q13370+Q14432). Nature of the assay: Inhibition of phosphodiesterase (PDE) 3.
cGMP-inhibited 3',5'-cyclic phosphodiesterase 3A/3B, sequence (Q14432 whole entry): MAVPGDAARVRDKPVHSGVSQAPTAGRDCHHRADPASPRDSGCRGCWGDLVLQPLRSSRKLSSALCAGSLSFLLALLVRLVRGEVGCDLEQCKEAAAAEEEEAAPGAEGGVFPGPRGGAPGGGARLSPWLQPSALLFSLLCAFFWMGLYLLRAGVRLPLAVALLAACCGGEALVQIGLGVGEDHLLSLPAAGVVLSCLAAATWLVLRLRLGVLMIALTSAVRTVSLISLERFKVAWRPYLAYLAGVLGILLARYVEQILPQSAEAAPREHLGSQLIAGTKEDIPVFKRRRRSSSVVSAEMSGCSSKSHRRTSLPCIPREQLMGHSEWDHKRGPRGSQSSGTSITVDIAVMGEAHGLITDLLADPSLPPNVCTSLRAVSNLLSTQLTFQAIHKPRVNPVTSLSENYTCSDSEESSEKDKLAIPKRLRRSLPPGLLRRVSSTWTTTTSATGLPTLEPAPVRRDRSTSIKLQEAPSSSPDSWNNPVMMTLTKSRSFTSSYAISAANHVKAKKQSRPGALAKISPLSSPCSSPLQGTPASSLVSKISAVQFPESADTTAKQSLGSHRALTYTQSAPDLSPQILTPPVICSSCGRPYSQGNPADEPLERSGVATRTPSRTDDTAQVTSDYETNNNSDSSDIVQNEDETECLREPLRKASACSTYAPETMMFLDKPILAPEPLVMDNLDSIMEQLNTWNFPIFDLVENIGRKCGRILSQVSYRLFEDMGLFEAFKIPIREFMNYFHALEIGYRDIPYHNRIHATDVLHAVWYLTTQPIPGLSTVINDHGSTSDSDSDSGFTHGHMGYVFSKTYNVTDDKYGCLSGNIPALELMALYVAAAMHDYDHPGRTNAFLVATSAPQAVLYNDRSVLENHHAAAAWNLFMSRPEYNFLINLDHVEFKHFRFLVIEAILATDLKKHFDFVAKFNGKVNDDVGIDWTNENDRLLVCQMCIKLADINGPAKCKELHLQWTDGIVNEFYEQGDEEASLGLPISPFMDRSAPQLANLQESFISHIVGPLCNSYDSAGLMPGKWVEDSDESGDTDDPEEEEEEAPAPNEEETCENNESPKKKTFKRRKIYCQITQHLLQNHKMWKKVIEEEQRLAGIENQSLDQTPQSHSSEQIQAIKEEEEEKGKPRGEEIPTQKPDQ
cGMP-inhibited 3',5'-cyclic phosphodiesterase 3A/3B, sequence (Q13370 whole entry): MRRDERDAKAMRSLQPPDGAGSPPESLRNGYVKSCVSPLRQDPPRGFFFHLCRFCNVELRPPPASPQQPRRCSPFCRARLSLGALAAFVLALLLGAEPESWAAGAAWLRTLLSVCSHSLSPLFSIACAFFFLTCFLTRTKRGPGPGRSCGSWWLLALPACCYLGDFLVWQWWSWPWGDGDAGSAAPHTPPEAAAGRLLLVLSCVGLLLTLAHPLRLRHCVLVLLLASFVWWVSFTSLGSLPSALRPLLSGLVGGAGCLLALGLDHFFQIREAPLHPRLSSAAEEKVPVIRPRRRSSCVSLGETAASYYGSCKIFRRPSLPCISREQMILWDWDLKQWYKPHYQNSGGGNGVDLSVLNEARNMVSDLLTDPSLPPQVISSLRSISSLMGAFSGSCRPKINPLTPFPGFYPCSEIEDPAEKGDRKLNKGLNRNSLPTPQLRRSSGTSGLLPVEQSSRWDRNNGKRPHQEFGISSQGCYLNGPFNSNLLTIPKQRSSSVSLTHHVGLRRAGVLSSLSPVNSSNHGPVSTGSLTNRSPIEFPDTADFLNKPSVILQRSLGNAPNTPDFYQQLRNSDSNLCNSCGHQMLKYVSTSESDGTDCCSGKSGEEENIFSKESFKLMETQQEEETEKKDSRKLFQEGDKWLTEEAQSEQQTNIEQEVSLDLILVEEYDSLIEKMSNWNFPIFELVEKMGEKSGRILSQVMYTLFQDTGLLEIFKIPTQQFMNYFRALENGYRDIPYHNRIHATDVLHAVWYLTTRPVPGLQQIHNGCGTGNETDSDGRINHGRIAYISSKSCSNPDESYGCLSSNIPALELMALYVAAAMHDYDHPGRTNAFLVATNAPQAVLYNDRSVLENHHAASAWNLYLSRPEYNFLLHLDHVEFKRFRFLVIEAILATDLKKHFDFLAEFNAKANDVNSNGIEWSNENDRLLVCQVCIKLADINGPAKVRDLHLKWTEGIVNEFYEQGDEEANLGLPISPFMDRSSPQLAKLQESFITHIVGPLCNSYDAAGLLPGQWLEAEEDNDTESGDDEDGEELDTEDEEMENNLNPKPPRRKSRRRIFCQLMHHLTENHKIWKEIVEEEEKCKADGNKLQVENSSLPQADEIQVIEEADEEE
`COc1cccc(COc2cccc(N3CC(c4ccc(OC)c(OC5CCCC5)c4)CC3=O)c2)c1` (centres undefined): the concentration for half-maximal inhibition (IC50) (usually the concentration that inhibits the measured activity by half) is over 100 µM.
Then `COc1cccc(COc2cc(C(=O)NN(C)C)cc(N3CC(c4ccc(OC)c(OC5CCCC5)c4)CC3=O)c2)c1` (centres undefined), with over 100 µM.
To `COc1cccc(COc2cc(C(=O)O)cc(N3CC(c4ccc(OC)c(OC5CCCC5)c4)CC3=O)c2)c1` (centres undefined) belongs over 100 µM; to `COc1ccc([C@@H]2CNC(=O)C2)cc1OC1CCCC1` (racemic) [Adeo], over 100 µM.
